Data from patent publication US12077503B2, “Substituted cyclic amides and their use as herbicides” (FMC CORPORATION, priority 2015, dated 2024).

Key:
Assay type in all cases: in vivo
Kochia (Kochia scoparia) [1] = assay: Test A preemergence; conditions: Bassia scoparia, pre-emergence, 240 h, 0 to 100 scale where 0 is no effect and 100 is complete control, read-out: Kochia plant response rating
Outline: (§1)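 Ratings of 0 (no effect) to 100 (complete control) come from visual comparison with untreated controls roughly 10 d after treatment. Test chemicals, formulated in a non-phytotoxic solvent mixture with surfactant, were applied either as a preemergence directed soil spray on seeded soil or postemergence to one- to two-leaf plants 2 to 10 cm tall.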

[2] = system: barnyardgrass (Echinochloa crus-galli); assay: Test A preemergence; conditions: Echinochloa crus-galli, pre-emergence, 240 h, 0 to 100 scale where 0 is no effect and 100 is complete control, read-out: Barnyardgrass plant response rating
Outline: as §1

[3] = system: giant foxtail (Setaria faberii); assay: Test A preemergence; conditions: Setaria faberi, pre-emergence, 240 h, 0 to 100 scale where 0 is no effect and 100 is complete control, read-out: Foxtail, Giant plant response rating
Outline: as §1

[4] = system: pigweed (Amaranthus retroflexus); assay: Test A preemergence; conditions: Amaranthus retroflexus, pre-emergence, 240 h, 0 to 100 scale where 0 is no effect and 100 is complete control, read-out: Pigweed plant response rating
[5] = system: ragweed (common ragweed, Ambrosia elatior); assay: Test A preemergence; conditions: Ambrosia artemisiifolia, pre-emergence, 240 h, 0 to 100 scale where 0 is no effect and 100 is complete control, read-out: Ragweed plant response rating
Outline: as §1

[6] = system: ryegrass, Italian (Italian ryegrass, Lolium multiflorum); assay: Test A preemergence; conditions: Lolium multiflorum, pre-emergence, 240 h, 0 to 100 scale where 0 is no effect and 100 is complete control, read-out: Ryegrass, Italian plant response rating
Outline: as §1

[7] = system: Galium (catchweed bedstraw, Galium aparine); assay: Test A postemergence; conditions: Galium, post-emergence, 240 h
Outline: as §1

Kochia (Kochia scoparia) [8] = assay: Test A postemergence; conditions: Bassia scoparia, post-emergence, 240 h
Outline: as §1

[9] = system: barnyardgrass (Echinochloa crus-galli); assay: Test A postemergence; conditions: Echinochloa crus-galli, post-emergence, 240 h
Outline: as §1

[10] = system: blackgrass (Alopecurus myosuroides); assay: Test A postemergence; conditions: Alopecurus myosuroides, post-emergence, 240 h
Outline: as §1

corn (Zea mays) = assay: Test A postemergence; conditions: Zea mays, post-emergence, 240 h
Outline: as §1

[11] = system: giant foxtail (Setaria faberii); assay: Test A postemergence; conditions: Setaria faberi, post-emergence, 240 h
Outline: as §1

[12] = system: pigweed (Amaranthus retroflexus); assay: Test A postemergence; conditions: Amaranthus retroflexus, post-emergence, 240 h
Outline: as §1

[13] = system: ragweed (common ragweed, Ambrosia elatior); assay: Test A postemergence; conditions: Ambrosia artemisiifolia, post-emergence, 240 h
Outline: as §1

[14] = system: ryegrass, Italian (Italian ryegrass, Lolium multiflorum); assay: Test A postemergence; conditions: Lolium multiflorum, post-emergence, 240 h
Outline: as §1

[15] = system: wheat (Triticum aestivum); assay: Test A postemergence; conditions: Triticum aestivum, post-emergence, 240 h
Outline: as §1

[16] = system: barnyardgrass (Echinochloa crus-galli); assay: Test B flooded paddy test; conditions: Echinochloa crus-galli, 250 g ai/ha, Flood; 0 to 100 scale where 0 is no effect and 100 is complete control; read-out: Barnyardgrass plant response rating
Outline: (§2)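 Visual ratings (0 none to 100 complete control) are relative to untreated plants, taken 13–15 d after treatment in a greenhouse. Test material went straight into floodwater standing 3 cm above the soil, kept constant, on plants at the 2-leaf stage.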

[17] = system: ducksalad (Heteranthera limosa); assay: Test B flooded paddy test; conditions: Heteranthera limosa, 250 g ai/ha, Flood; 0 to 100 scale where 0 is no effect and 100 is complete control; read-out: Ducksalad plant response rating
Outline: as §2

rice (Oryra sativa) = assay: Test B flooded paddy test; conditions: Oryza sativa, 250 g ai/ha, Flood; 0 to 100 scale where 0 is no effect and 100 is complete control; read-out: Rice plant response rating
Outline: as §2

[18] = system: sedge, umbrella (small-flower umbrella sedge, Cyperus difformis); assay: Test B flooded paddy test; conditions: Cyperus difformis, 250 g ai/ha, Flood; 0 to 100 scale where 0 is no effect and 100 is complete control; read-out: Sedge, Umbrella plant response rating
Outline: as §2

[19] = 125 g ai/ha, preemergence, approx. 10 d

## CN1C[C@H](c2ccc(F)c(Oc3ccccc3)c2)[C@@H](C(=O)Nc2ccccc2F)C1=O [Compound 1141]
Kochia (Kochia scoparia) [1]; 31 g ai/ha, Preemergence
  pest or weed control at 31 g/ha: 0%
Kochia (Kochia scoparia) [1]; [19]
  pest or weed control at 125 g/ha: 0%
[2]; 31 g ai/ha, Preemergence
  pest or weed control at 31 g/ha: 30%
[2]; [19]
  pest or weed control at 125 g/ha: 80%
[3]; 31 g ai/ha, Preemergence
  pest or weed control at 31 g/ha: 80%
[3]; [19]
  pest or weed control at 125 g/ha: 90%
[4]; 31 g ai/ha, Preemergence
  pest or weed control at 31 g/ha: 30%
[4]; [19]
  pest or weed control at 125 g/ha: 60%
[5]; 31 g ai/ha, Preemergence
  pest or weed control at 31 g/ha: 0%
[5]; [19]
  pest or weed control at 125 g/ha: 0%
[6]; 31 g ai/ha, Preemergence
  pest or weed control at 31 g/ha: 0%
[6]; [19]
  pest or weed control at 125 g/ha: 40%
[7]; 125 g ai/ha, postemergence, visual injury on 0 to 100 scale (0 no effect, 100 complete control), approx. 10 d, read-out: Galium plant response rating
  pest or weed control at 125 g/ha: 90%
[7]; Postemergence, 31 g ai/ha, visual injury after approx. 10 d, 0 to 100 scale, 0 no effect, 100 complete control, read-out: Plant response rating, Galium
  pest or weed control at 31 g/ha: 60%
Kochia (Kochia scoparia) [8]; 125 g ai/ha, postemergence, visual injury on 0 to 100 scale (0 no effect, 100 complete control), approx. 10 d, read-out: Kochia plant response rating
  pest or weed control at 125 g/ha: 30%
Kochia (Kochia scoparia) [8]; Postemergence, 31 g ai/ha, visual injury after approx. 10 d, 0 to 100 scale, 0 no effect, 100 complete control, read-out: Plant response rating, Kochia
  pest or weed control at 31 g/ha: 0%
[9]; 125 g ai/ha, postemergence, visual injury on 0 to 100 scale (0 no effect, 100 complete control), approx. 10 d, read-out: Barnyardgrass plant response rating
  pest or weed control at 125 g/ha: 90%
[9]; Postemergence, 31 g ai/ha, visual injury after approx. 10 d, 0 to 100 scale, 0 no effect, 100 complete control, read-out: Plant response rating, Barnyardgrass
  pest or weed control at 31 g/ha: 60%
[10]; 125 g ai/ha, postemergence, visual injury on 0 to 100 scale (0 no effect, 100 complete control), approx. 10 d, read-out: Blackgrass plant response rating
  pest or weed control at 125 g/ha: 30%
[10]; Postemergence, 31 g ai/ha, visual injury after approx. 10 d, 0 to 100 scale, 0 no effect, 100 complete control, read-out: Plant response rating, Blackgrass
  pest or weed control at 31 g/ha: 0%
Corn (Zea mays); 125 g ai/ha, postemergence, visual injury on 0 to 100 scale (0 no effect, 100 complete control), approx. 10 d, read-out: Corn plant response rating
  plant injury at 125 g/ha: 20%
Corn (Zea mays); Postemergence, 31 g ai/ha, visual injury after approx. 10 d, 0 to 100 scale, 0 no effect, 100 complete control
  Corn plant response rating (crop injury, 0 = no effect, 100 = complete kill) at 31 g/ha: 0%
[11]; 125 g ai/ha, postemergence, visual injury on 0 to 100 scale (0 no effect, 100 complete control), approx. 10 d, read-out: Foxtail, Giant plant response rating
  pest or weed control at 125 g/ha: 90%
[11]; Postemergence, 31 g ai/ha, visual injury after approx. 10 d, 0 to 100 scale, 0 no effect, 100 complete control, read-out: Plant response rating, Foxtail, Giant
  pest or weed control at 31 g/ha: 60%
[12]; 125 g ai/ha, postemergence, visual injury vs untreated controls after approx. 10 d, 0 = no effect, 100 = complete control, read-out: Pigweed plant response rating (0 to 100 scale)
  pest or weed control at 125 g/ha: 50%
[12]; Postemergence, 31 g ai/ha, visual injury after approx. 10 d, 0 to 100 scale, 0 no effect, 100 complete control, read-out: Plant response rating, Pigweed
  pest or weed control at 31 g/ha: 30%
[13]; 125 g ai/ha, postemergence, visual injury vs untreated controls after approx. 10 d, 0 = no effect, 100 = complete control, read-out: Ragweed plant response rating (0 to 100 scale)
  pest or weed control at 125 g/ha: 30%
[13]; Postemergence, 31 g ai/ha, visual injury after approx. 10 d, 0 to 100 scale, 0 no effect, 100 complete control, read-out: Plant response rating, Ragweed
  pest or weed control at 31 g/ha: 0%
[14]; 125 g ai/ha, postemergence, visual injury vs untreated controls after approx. 10 d, 0 = no effect, 100 = complete control, read-out: Ryegrass, Italian plant response rating (0 to 100 scale)
  pest or weed control at 125 g/ha: 50%
[14]; Postemergence, 31 g ai/ha, visual injury after approx. 10 d, 0 to 100 scale, 0 no effect, 100 complete control, read-out: Plant response rating, Ryegrass, Italian
  pest or weed control at 31 g/ha: 20%
[15]; 125 g ai/ha, postemergence, visual injury vs untreated controls after approx. 10 d, 0 = no effect, 100 = complete control, read-out: Wheat plant response rating (0 to 100 scale)
  plant injury at 125 g/ha: 20%
[15]; Postemergence, 31 g ai/ha, visual injury after approx. 10 d, 0 to 100 scale, 0 no effect, 100 complete control, read-out: Plant response rating, Wheat
  plant injury at 31 g/ha: 0%
[16]
  pest or weed control at 250 g/ha: 50%
[17]
  pest or weed control at 250 g/ha: 90%
Rice (Oryra sativa)
  pest or weed control at 250 g/ha: 0%
[18]
  pest or weed control at 250 g/ha: 0%
